Assay results published in patent publication US9980943B2, “Methods of treating muscular dystrophy” (BOARD OF REGENTS OF THE NEVADA SYSTEM OF HIGHER EDUCATION, …, priority 2013, dated 2018).

What was measured:
Assay type in all cases: cell-based, mouse
[1] = tested on: α7 integrin (LacZ reporter in α7+/LacZ myotubes); experiment: Myotube α7 integrin FDG assay (Burkin assay in myotubes, 96-well); settings: myotubes
[2] = tested on: β-galactosidase in CMV-LacZ C2C12 myoblasts; experiment: CMV-LacZ secondary screen in C2C12 myoblasts (β-Gal stabilizing assay); settings: CMV-LacZ C2C12 myoblasts
Procedure, shortened: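 C2C12 myoblasts stably carrying a linearized CMV-driven LacZ construct, clone chosen by β-gal level in the myoblast FDG assay. Compounds tested in 96-well dose-response at 0.5, 1, 5, 10, 20 and 40 μM, N=2 replicates per point, to detect β-gal stabilization.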

[3] = tested on: β-galactosidase in CMV-LacZ C2C12 myotubes; experiment: CMV-LacZ secondary screen in C2C12 myotubes (β-Gal stabilizing assay); settings: C2C12 CMV-LacZ myotubes, fold relative to DMSO
Procedure, shortened: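 Dose-response runs at 0.5–40 μM (0.5, 1, 5, 10, 20, 40 μM; N=2 per point) used a clonal C2C12 line carrying CMV-LacZ. Cells were assayed as myoblasts or as differentiated myotubes, and β-galactosidase levels were read with the FDG fluorogenic substrate.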

[4] = tested on: α7 integrin (LacZ reporter in α7βgal+/− myoblasts); experiment: Myoblast α7+/LacZ integrin FDG assay (Burkin assay in myoblasts, 96-well); settings: α7+/LacZ myoblasts, 96-well

SMILES	Burkin Assay in Myotubes, α7 integrin LacZ reporter signal relative to DMSO ([1]; 0.5 uM)	Burkin Assay in Myotubes, α7 integrin LacZ reporter signal relative to DMSO ([1]; 1 uM)	Burkin Assay in Myotubes, α7 integrin LacZ reporter signal relative to DMSO ([1]; 5 uM)	Burkin Assay in Myotubes, α7 integrin LacZ reporter signal relative to DMSO ([1]; 10 uM)	Burkin Assay in Myotubes, α7 integrin LacZ reporter signal relative to DMSO ([1]; 20 uM)	Burkin Assay in Myotubes, α7 integrin LacZ reporter signal relative to DMSO ([1]; 40 uM)	CMV-LACZ in Myoblasts (β-galactosidase activity relative to DMSO) ([2]; 0.5 uM)	CMV-LACZ in Myoblasts (β-galactosidase activity relative to DMSO) ([2]; 1 uM)	CMV-LACZ in Myoblasts (β-galactosidase activity relative to DMSO) ([2]; 5 uM)	CMV-LACZ in Myoblasts (β-galactosidase activity relative to DMSO) ([2]; 10 uM)	CMV-LACZ in Myoblasts (β-galactosidase activity relative to DMSO) ([2]; 20 uM)	CMV-LACZ in Myoblasts (β-galactosidase activity relative to DMSO) ([2]; 40 uM)	CMV-LACZ in Myotubes, signal relative to DMSO ([3]; 0.5 uM)	CMV-LACZ in Myotubes, signal relative to DMSO ([3]; 1 uM)	CMV-LACZ in Myotubes, signal relative to DMSO ([3]; 5 uM)	CMV-LACZ in Myotubes, signal relative to DMSO ([3]; 10 uM)	CMV-LACZ in Myotubes, signal relative to DMSO ([3]; 20 uM)	CMV-LACZ in Myotubes, signal relative to DMSO ([3]; 40 uM)	Burkin Assay in Myoblasts, signal relative to DMSO ([4]; 0.5 uM)	Burkin Assay in Myoblasts, signal relative to DMSO ([4]; 1 uM)	other results
O=C(COc1ccc(Cl)cc1)N1CCN(C2CCCC2)CC1.O=C(O)C(=O)O [MLS001221318-01]	1.133	1.082	0.9266	0.9591	0.8071	0.7186	0.8528	1.0538	1.0999	0.9955	1.0181	1.5641	1.0037	1.4059	1.1337	0.9944	1.2212	0.8576	1.118	1.283	Burkin Assay in Myoblasts, signal relative to DMSO ([4]; 5 uM): 1.01; Burkin Assay in Myoblasts, signal relative to DMSO ([4]; 10 uM): 0.9944; Burkin Assay in Myoblasts, signal relative to DMSO ([4]; 20 uM): 1.054; Burkin Assay in Myoblasts, signal relative to DMSO ([4]; 40 uM): 1.075
O=C(NCc1ccccc1)C(c1c(F)cccc1Cl)N(C(=O)c1csnn1)C1CC1 (stereo not drawn) [MLS001221908-01]	1.197	0.9589	0.889	0.9693	0.818	0.7406	0.9663	0.7607	0.9357	0.7908	0.9726	0.6789	0.8562	0.9171	0.9745	1.1838	1.0770	0.8850	1.051	0.9531	Burkin Assay in Myoblasts, signal relative to DMSO ([4]; 5 uM): 0.9306; Burkin Assay in Myoblasts, signal relative to DMSO ([4]; 10 uM): 0.8812; Burkin Assay in Myoblasts, signal relative to DMSO ([4]; 20 uM): 1.433; Burkin Assay in Myoblasts, signal relative to DMSO ([4]; 40 uM): 0.5684
O=C(CSc1nnc2c(n1)[nH]c1ccccc12)NCc1ccccc1F [MLS001225512-01]	0.929	1.059	0.9799	0.8235	0.8431	0.7401	0.9597	1.0843	1.1655	1.4266	0.8237	1.0111	1.0162	1.0381	0.9459	1.0077	1.2482	0.8871	1.1596	0.9131	Burkin Assay in Myoblasts, signal relative to DMSO ([4]; 5 uM): 1.173; Burkin Assay in Myoblasts, signal relative to DMSO ([4]; 10 uM): 0.8832; Burkin Assay in Myoblasts, signal relative to DMSO ([4]; 20 uM): 1.108; Burkin Assay in Myoblasts, signal relative to DMSO ([4]; 40 uM): 1.284
CC(C)c1ccc(NC(=O)CN2C(=O)c3ccccc3S2(=O)=O)cc1 [MLS001229477-01]	0.8015	0.9368	0.9702	0.9015	0.8376	0.8339	1.0283	1.1345	1.1078	1.1311	1.0674	0.8800	1.0126	1.1095	0.9250	0.9587	0.9622	0.9611	0.8703	0.8296	Burkin Assay in Myoblasts, signal relative to DMSO ([4]; 5 uM): 1.367; Burkin Assay in Myoblasts, signal relative to DMSO ([4]; 10 uM): 0.9454; Burkin Assay in Myoblasts, signal relative to DMSO ([4]; 20 uM): 0.9634; Burkin Assay in Myoblasts, signal relative to DMSO ([4]; 40 uM): 0.9019
CCc1c(C)sc(NC(=O)c2ccco2)c1C#N [MLS001240181-01]	1.174	1.214	1.643	0.9683	0.8871	0.7905	0.9550	1.0441	0.8408	1.1645	1.0367	0.8907	0.9519	1.0511	1.0895	0.9955	1.0976	1.1376	1.082	1.081	Burkin Assay in Myoblasts, signal relative to DMSO ([4]; 5 uM): 1.4585; Burkin Assay in Myoblasts, signal relative to DMSO ([4]; 10 uM): 1.074; Burkin Assay in Myoblasts, signal relative to DMSO ([4]; 20 uM): 1.153; Burkin Assay in Myoblasts, signal relative to DMSO ([4]; 40 uM): 1.198
Cc1nnc(-c2ccc(N3CCOCC3)c([N+](=O)[O-])c2)o1 [MLS001359861-01]	1.095	1.184	0.9088	0.876	1.0337	0.804	0.9444	0.9184	0.9009	0.8064	0.9074	1.0330	0.8978	0.9533	0.9547	1.1230	0.9976	0.9412	0.9353	0.9376	Burkin Assay in Myoblasts, signal relative to DMSO ([4]; 5 uM): 0.9484; Burkin Assay in Myoblasts, signal relative to DMSO ([4]; 10 uM): 0.9324; Burkin Assay in Myoblasts, signal relative to DMSO ([4]; 20 uM): 0.8725; Burkin Assay in Myoblasts, signal relative to DMSO ([4]; 40 uM): 0.9113
